≈ marks a conversion by molar mass, not a printed value.

Here are results for 15 compounds from EP4159870A1, “SYSTEM FOR THE DETECTION OF INHIBITORS IN MILK” (Analytik in Milch Produktions- und Vertriebs-GmbH, priority 2021, dated 2023).

In data set [1] the test system is A. pallidus MHI 3391. The data set can be described thus: microbe, parasite or virus in culture.
The subject of data set [2] is G. stearothermophilus C953 (DSM 1550). Briefly: microbe, parasite or virus in culture. The following applies: Geobacillus stearothermophilus, DSM1550.
For data set [3] the test system is unchanged. Briefly: BRT microbial test system with additives in the growth medium, G. stearothermophilus indicator strain. It is filed as cell-based. The following applies: for longer incubation time until complete discoloration of the negative control: additive in growth medium: 200 µg/l CIP, 150 µg/l MOX, versus control plates. The protocol: (§1) The medium was prepared with one additive each. The evaluation of an increase in sensitivity and incubation time until complete discoloration of the negative control was performed by comparison with corresponding control medium, spore suspensions from the same batches and an equivalent number of spores.
(§2) Microbial test systems were prepared according to methods L 01.01-5 (January 2012) and L 01.00-11 (December 2002) ASU. 6.85 g BRT basis medium comprising about 1.5 g/l meat extract, about 3.0 g/l yeast extract, about 4.0 g/l casein peptone, about 6.0 g/l meat peptone, about 1.0 g/l D(+)-glucose, about 10 ml/l trimethoprim solution, and about 10 to […] dissolved in 250 ml distilled water and autoclaved.
(§3) The medium was tempered to 65 °C. 6.25 ml of sterile-filtered brilliant black solution (4 mg/ml, in dist. aqua) and medium additives and the spore suspension was added. The volume of spore suspension to be used was calculated on the basis of the desired spore number [cfu/ml] and the determined spore number of the spore suspension. The spore suspension was adjusted to a volume corresponding to 0.4 to 6 % v/v of the growth medium by dilution in Ringer's solution or by centrifugation (6,000 × g, RT, 10 min).
(§4) 100 µl growth medium per well was aliquoted into 96-well microtiter plates, the test system plates were solidified under the sterile bench for at least 30 min, the test system plates were sealed with adhesive foil and stored at 4 °C with the bottom surface facing upwards.

The test system of data set [4] is A. pallidus MHI 3391. The data set can be described thus: BRT microbial test system with additives in the growth medium, A. pallidus indicator strain. The data set is classed as cell-based. As to conditions: for incubated longer than corresponding control plates: additive in growth medium: 100 µg/l CIP, 100 µg/l MOX; for Concentrations detected in spiked milk samples: growth medium with 100 µg/l MOX. The protocol:
as §1, §2, §3, §4

The test system of data set [5] is A. pallidus MHI 3391. Briefly: FQ-BRT test system, detection of inhibitors in spiked milk samples. It is filed as cell-based. As to conditions: for detection at the detection level: incubation extended by two hours; for Detection at concentration: plates incubated for additional four hours relative to discoloration time of the negative control; for test result in the FQ-BRT: spiked milk samples at concentrations at the level of the respective MRL. The method, then: A. pallidus MHI 3391 was used as the indicator bacteria, endospores were used with a spore count of 1.56 × 10^7 cfu/ml growth medium, the growth medium used was based on BRT basis medium comprising a brilliant black concentration of 100 mg/l, 100 µg/l MOX and 8000 µg/l 8-hydroxyquinoline, adjusted to a pH of 8.5. In the following, this test system will be referred to as FQ-BRT. The incubation of the FQ-BRT was carried out in a water bath at 61 ± 1 °C.
The detection limits determined during the photometric and visual evaluation of test plates are shown in Figure 8 based on positive and negative control (CCβ A and CCβ B) derived from quality curves generated using the logistic regression model.
Discoloration of the negative control on test plates of the FQ-BRT using an UHT milk negative control was observed after an incubation of 302 ± 35 min.

The conditions of data set [6]: milk samples, after heating for 20 min at 120 °C; cited from earlier work.
Data set [7] deals with G. stearothermophilus C953 (DSM 1550). Briefly: BRT test system with Ca-DPA-activated spore suspensions. The data set is classed as cell-based. As to conditions: Ca-DPA-activated spores versus control plates. The method, then: (§5) 120 mM DPA stock solution was prepared in Tris-base and diluted in a 20-80 mM CaCl2 solution to obtain a Ca-DPA working solution before use. A spore suspension was adjusted to a specific spore count of 1.56 × 10^7 cfu/ml and a Ca-DPA concentration of 40 mM with Ca-DPA working solution and Ringer's solution. The spore suspension was incubated for 3 h in a thermal shaker at 55 °C and 350 rpm.

Data set [8] concerns A. thermoaerophilus MHI 3397. The description is as above. It is filed as cell-based. The following applies: Ca-DPA-activated spores versus control plates. The method, then: as §5
Data set [9] concerns A. pallidus MHI 3391. The description is as above. The data set is classed as cell-based. The following applies: Ca-DPA-activated spores versus control plates. The method, then: as §5
Data set [10] concerns A. pallidus MHI 3390. Described as above. It is filed as cell-based. As to conditions: Ca-DPA-activated spores versus control plates. The protocol:
as §5

The test system of data set [11] is B. thermoamylovorans MHI 3373. The description is as above. The data set is classed as cell-based. The following applies: Ca-DPA-activated spores versus control plates without Ca-DPA activation. The method, then: as §5
Setting [12] is: 8-hydroxyquinoline at 250, 500, 1000, 2000 and 4000 µg/l in basic growth medium.

For `Oc1cccc2cccnc12` [8-hydroxyquinoline], the values for the MIC in data set [1] and in data set [2] were 8 mg/L (≈ 55.1 µM) and 4 mg/L (≈ 27.6 µM), respectively. In addition, the “improvement in detection sensitivity” value in data set [3] (setting [12]) and in data set [4] (setting [12]) was “no improvement in detection sensitivity” throughout. Besides, the “reduction in incubation time” value in [3] (addition of 8-hydroxyquinoline) was “not observed”. Besides, the “Incubation time reduced by” value in data set [4] (8000 µg/l 8-hydroxyquinoline added to growth medium comprising 100 µg/l MOX) is on record as 70 ± 16 min; in [4] (addition of 2000 µg/l 8-hydroxyquinoline to basic growth medium) it was 66 ± 0 min; in data set [4] (addition of 4000 µg/l 8-hydroxyquinoline to basic growth medium), 94 ± 7 min. The “decrease in incubation time” value in data set [4] (combination of 8000 µg/l 8-hydroxyquinoline and 100 µg/l CIP) amounted to 17 ± 4 min.

`O=C(O)c1cn(C2CC2)c2cc(N3CCNCC3)c(F)cc2c1=O` [CIP, ciprofloxacin]: in [3] (additive in growth medium: 50 µg/l CIP, 75 µg/l MOX, 100 µg/l LEV), the “effect of addition to growth medium on detection sensitivity” value is “not associated with an increased sensitivity”. For the same compound, in data set [3], the “longer incubation time until complete discoloration of the negative control” value is reported as 32 ± 10 min. In data set [3] (growth medium comprising 100 or 200 µg/l CIP, 100, 125 or 150 µg/l MOX, or 200 µg/l LEV), the “concentration detected in spiked milk samples” value was found to be 200 µg/kg. Also, in data set [5], the “detection at the detection level” value is given as 100 µg/kg and the Detection at concentration was 50 µg/kg. Moreover, in data set [4], the “incubated longer than corresponding control plates” value is 17 ± 7 min and the “Concentrations detected in spiked milk samples” value (shortened to “Concentrations detected”) is recorded as 50 µg/kg. In data set [4] (growth medium with addition of 100 µg/l CIP), this compound showed a concentration detected of 100 µg/kg.

In the case of `CN1C[C@@H]2C[C@H]1CN2c1cc2c(cc1F)c(=O)c(C(=O)O)cn2C1CC1` [DAN, danofloxacin], the “Concentrations detected” value in data set [4] is recorded as 120 µg/kg.

On to `CCN1CCN(c2cc3c(cc2F)c(=O)c(C(=O)O)cn3C2CC2)CC1` [ENR, enrofloxacin], for which, in [5], the “detection at the detection level” value amounted to 100 µg/kg and the Detection at concentration stood at 100 µg/kg. In addition, the degradation in [6] is on record as 5%. For the same compound, the “Concentrations detected” value in data set [4] is recorded as 100 µg/kg.

`CN1CCN(c2c(F)cc3c(=O)c(C(=O)O)cn4c3c2OCN4C)CC1` [MAR, marbofloxacin] came in with a detection sensitivity in [5] (incubation extended by three hours) of 100 µg/kg. Moreover, the “detection at the detection level” value in data set [5] worked out at 75 µg/kg. Further, the “Concentrations detected” value in data set [4] was 75 µg/kg.

For `COc1c(N2C[C@@H]3CCCN[C@@H]3C2)c(F)cc2c(=O)c(C(=O)O)cn(C3CC3)c12` [MOX, moxifloxacin], the “longer incubation time until complete discoloration of the negative control” value in data set [3] is 18 ± 0 min. Besides, the “incubated longer than corresponding control plates” value in [4] is given as 62 ± 31 min.

Consider `CCN1CCN(C(=O)N[C@@H](C(=O)N[C@@H]2C(=O)N3C(C(=O)O)=C(CSc4nnnn4C)CS[C@H]23)c2ccc(O)cc2)C(=O)C1=O` [cefoperazone], for which the “test result in the FQ-BRT” value in data set [5] is recorded as “intermediate test results”.

Consider `CO/N=C(\C(=O)N[C@@H]1C(=O)N2C(C(=O)[O-])=C(C[n+]3cccc4c3CCCC4)CS[C@H]12)c1csc(N)n1` [cefquinome], for which the “test result in the FQ-BRT” value in data set [5] is on record as “intermediate test results”.

As for `Cc1onc(-c2c(Cl)cccc2Cl)c1C(=O)N[C@@H]1C(=O)N2[C@@H]1SC(C)(C)[C@@H]2C(=O)O` [dicloxacillin], in data set [5], the “test result in the FQ-BRT” value is “intermediate test results”.

Consider `CCOc1ccc2ccccc2c1C(=O)N[C@@H]1C(=O)N2[C@@H]1SC(C)(C)[C@@H]2C(=O)O` [nafcillin], for which the “test result in the FQ-BRT” value in [5] is listed as “intermediate test results”.

For the compound `Cc1onc(-c2ccccc2)c1C(=O)N[C@@H]1C(=O)N2[C@@H]1SC(C)(C)[C@@H]2C(=O)O` [oxacillin], the “test result in the FQ-BRT” value in data set [5] is on record as “intermediate test results”.

`CC[C@H]1OC(=O)C[C@@H](O)[C@H](C)[C@@H](O[C@@H]2O[C@H](C)[C@@H](O[C@H]3C[C@@](C)(O)[C@@H](O)[C@H](C)O3)[C@H](N(C)C)[C@H]2O)[C@@H](CC=O)C[C@@H](C)C(=O)/C=C/C(C)=C/[C@@H]1CO[C@@H]1O[C@H](C)[C@@H](O)[C@@H](OC)[C@H]1OC` [tylosin]: the “test result in the FQ-BRT” value in data set [5] is “positive test result”.

In the case of calcium dipicolinic acid [Ca-DPA], the “increase in incubation time, mean difference” value in data set [7] was determined as 139 ± 42 min; in [9], 164 ± 52 min; in data set [10] it was 139 ± 29 min. Besides, the “effect on incubation duration” value in [8] was “No effect on incubation duration”. The compound also yielded a shorter incubation time in data set [11] of 23 ± 2 min.

Turning to gentamicin, the “test result in the FQ-BRT” value in data set [5] was “positive test result”.

Take neomycin: the “test result in the FQ-BRT” value in data set [5] was “positive test result”.
